Reference: patent US10035790B2, “RORγ modulators” (BRISTOL-MYERS SQUIBB COMPANY, priority 2012, dated 2018)

The compounds below were run against T1, ligand binding domain of human RORγ (A262-S507) (Homo sapiens, UniProt P51449) (assay: General RORγ SPA binding assay (competition with [3H]25-hydroxycholesterol)). Conditions: RORγ SPA binding assay, inhibition of [3H]25-hydroxycholesterol binding; read-out: IC50.
T1 construct: made in house; host or cells: E. coli
T1 sequence (P51449 262-507): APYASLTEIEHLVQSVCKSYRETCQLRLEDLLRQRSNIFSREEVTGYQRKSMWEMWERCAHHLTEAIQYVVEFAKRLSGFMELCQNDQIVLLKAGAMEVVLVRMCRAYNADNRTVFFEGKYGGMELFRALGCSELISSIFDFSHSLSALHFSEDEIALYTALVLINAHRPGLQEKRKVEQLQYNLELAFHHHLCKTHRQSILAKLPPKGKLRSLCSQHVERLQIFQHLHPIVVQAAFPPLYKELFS
How it was run: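 Step one: compound meets 50 nM nickel-purified, His-tagged protein from E. coli for 15 min at room temperature (PBS, 0.5% fatty acid free BSA). Step two: radioligand is added for another 15 min. Step three: SPA beads are added for 30 min before scintillation reading and IC50 fitting.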

Row | SMILES | IC50 [nM]
1 | Cc1nc(C)c(-c2nnc(-c3ccnc(C(F)(F)F)n3)o2)c(C2CCN(C(=O)Cc3ccccc3Cl)CC2)n1 [Compound C41, 4-{1-[(2-Chlorophenyl)acetyl]piperidin-4-yl}-2,6-dimethyl-5-{5-[2-(trifluoromethyl)pyrimidin-4-yl]-1,3,4-oxadiazol-2-yl}pyrimidine] | 20.5
2 | Cc1nc(C)c(-c2nnc(-c3ccnc(C(F)(F)F)n3)o2)c(C2CCN(C(=O)Oc3ccccc3Cl)CC2)n1 [Compound C45, 2-Chlorophenyl 4-(2,6-dimethyl-5-{5-[2-(trifluoromethyl)pyrimidin-4-yl]-1,3,4-oxadiazol-2-yl}pyrimidin-4-yl)piperidine-1-carboxylate] | 42.8
3 | Cc1nc(N)nc(C2CCN(C(=O)Oc3c(F)cccc3F)CC2)c1-c1nnc(-c2ccnc(C(F)(F)F)n2)o1 [Compound C50, 2,6-Difluorophenyl 4-(2-amino-6-methyl-5-{5-[2-(trifluoromethyl)pyrimidin-4-yl]-1,3,4-oxadiazol-2-yl}pyrimidin-4-yl)piperidine-1-carboxylate] | 6.1
4 | Cc1nc(N)nc(C2CCN(C(=O)Oc3ccccc3Cl)CC2)c1-c1nnc(-c2ccnc(C(F)(F)F)n2)o1 [Compound C51, 2-Chlorophenyl 4-(2-amino-6-methyl-5-{5-[2-(trifluoromethyl)pyrimidin-4-yl]-1,3,4-oxadiazol-2-yl}pyrimidin-4-yl)piperidine-1-carboxylate] | 10.5
5 | Cc1nc(N)nc(C2CCN(C(=O)Oc3ccccc3F)CC2)c1-c1nnc(-c2ccnc(C(F)(F)F)n2)o1 [Compound C52, 2-Fluorophenyl 4-(2-amino-6-methyl-5-{5-[2-(trifluoromethyl)pyrimidin-4-yl]-1,3,4-oxadiazol-2-yl}pyrimidin-4-yl)piperidine-1-carboxylate] | 8.7
6 | Cc1nc(N)nc(C2CCN(C(=O)Oc3ccc(F)cc3)CC2)c1-c1nnc(-c2ccnc(C(F)(F)F)n2)o1 [Compound C53, 4-Fluorophenyl 4-(2-amino-6-methyl-5-{5-[2-(trifluoromethyl)pyrimidin-4-yl]-1,3,4-oxadiazol-2-yl}pyrimidin-4-yl)piperidine-1-carboxylate] | 37.3
7 | Cc1nc(N)nc(C2CCN(C(=O)Oc3cc(F)ccc3F)CC2)c1-c1nnc(-c2ccnc(C(F)(F)F)n2)o1 [Compound C54, 2,5-Difluorophenyl 4-(2-amino-6-methyl-5-{5-[2-(trifluoromethyl)pyrimidin-4-yl]-1,3,4-oxadiazol-2-yl}pyrimidin-4-yl)piperidine-1-carboxylate] | 21.1
8 | Cc1nc(N)nc(C2CCN(C(=O)Oc3cccc(F)c3)CC2)c1-c1nnc(-c2ccnc(C(F)(F)F)n2)o1 [Compound C55, 3-Fluorophenyl 4-(2-amino-6-methyl-5-{5-[2-(trifluoromethyl)pyrimidin-4-yl]-1,3,4-oxadiazol-2-yl}pyrimidin-4-yl)piperidine-1-carboxylate] | 19.2
9 | Cc1nc(N)nc(C2CCN(C(=O)Oc3ccc(F)cc3F)CC2)c1-c1nnc(-c2ccnc(C(F)(F)F)n2)o1 [Compound C56, 2,4-Difluorophenyl 4-(2-amino-6-methyl-5-{5-[2-(trifluoromethyl)pyrimidin-4-yl]-1,3,4-oxadiazol-2-yl}pyrimidin-4-yl)piperidine-1-carboxylate] | 24.7
10 | COc1ccccc1OC(=O)N1CCC(c2nc(N)nc(C)c2-c2nnc(-c3ccnc(C(F)(F)F)n3)o2)CC1 [Compound C57, 2-(methyloxy)phenyl 4-(2-amino-6-methyl-5-{5-[2-(trifluoromethyl)pyrimidin-4-yl]-1,3,4-oxadiazol-2-yl}pyrimidin-4-yl)piperidine-1-carboxylate] | 23.6
11 | CSc1nc(C)c(-c2nnc(-c3cccc(C(F)(F)F)n3)o2)c(C2CCN(C(=O)Nc3c(F)cccc3F)CC2)n1 [Compound C58, N-(2,6-Difluorophenyl)-4-[6-methyl-2-(methylthio)-5-{5-[6-(trifluoromethyl)pyridin-2-yl]-1,3,4-oxadiazol-2-yl}pyrimidin-4-yl]piperidine-1-carboxamide] | 14.1
12 | Cc1nc(N)nc(C2CCN(C(=O)Nc3c(F)cccc3F)CC2)c1-c1nnc(-c2cccc(C(F)(F)F)n2)o1 [Compound C59, 4-(2-Amino-6-methyl-5-{5-[6-(trifluoromethyl)pyridin-2-yl]-1,3,4-oxadiazol-2-yl}pyrimidin-4-yl)-N-(2,6-difluorophenyl)piperidine-1-carboxamide] | 27.9

Second part, the compound after the results:

Row | IC50 [nM] | SMILES
13 | 47.5 | Cc1nc(C)c(-c2nnc(-c3ccnc(C(F)(F)F)n3)o2)c(C2CCN(C(=O)Nc3c(F)cccc3C(F)(F)F)CC2)n1 [Compound C40, 4-(2,6-Dimethyl-5-{5-[2-(trifluoromethyl)pyrimidin-4-yl]-1,3,4-oxadiazol-2-yl}pyrimidin-4-yl)-N-[2-fluoro-6-(trifluoromethyl)phenyl]piperidine-1-carboxamide]
14 | 240 | Cc1nc(C)c(-c2nnc(-c3ccnc(C(F)(F)F)n3)o2)c(C2CCN(C(=O)Cc3ncccc3Cl)CC2)n1 [Compound C42, 4-{1-[(3-Chloropyridin-2-yl)acetyl]piperidin-4-yl}-2,6-dimethyl-5-{5-[2-(trifluoromethyl)pyrimidin-4-yl]-1,3,4-oxadiazol-2-yl}pyrimidine]
15 | 11.2 | Cc1nc(C)c(-c2nnc(-c3ccnc(C(F)(F)F)n3)o2)c(C2CCN(C(=O)C(F)(F)c3c(F)cccc3F)CC2)n1 [Compound C43, 4-{1-[(2,6-difluorophenyl)(difluoro)acetyl]piperidin-4-yl}-2,6-dimethyl-5-{5-[2-(trifluoromethyl)pyrimidin-4-yl]-1,3,4-oxadiazol-2-yl}pyrimidine]
16 | 3.2 | Cc1nc(C)c(-c2nnc(-c3ccnc(C(F)(F)F)n3)o2)c(C2CCN(C(=O)C(F)(F)c3ccccc3F)CC2)n1 [Compound C44, 4-{1-[Difluoro(2-fluorophenyl)acetyl]piperidin-4-yl}-2,6-dimethyl-5-{5-[2-(trifluoromethyl)pyrimidin-4-yl]-1,3,4-oxadiazol-2-yl}pyrimidine]
17 | 123 | Cc1nc(C)c(-c2nnc(-c3ccnc(C(F)(F)F)n3)o2)c(C2CCN(C(=S)Nc3c(F)cccc3F)CC2)n1 [Compound C46, N-(2,6-Difluorophenyl)-4-(2,6-dimethyl-5-{5-[2-(trifluoromethyl)pyrimidin-4-yl]-1,3,4-oxadiazol-2-yl}pyrimidin-4-yl)piperidine-1-carbothioamide]
18 | 80.6 | Cc1nc(C)c(-c2nnc(-c3ccnc(C(F)(F)F)n3)o2)c(C2CCN(C(=S)Nc3ccccc3C(F)(F)F)CC2)n1 [Compound C47, 4-(2,6-Dimethyl-5-{5-[2-(trifluoromethyl)pyrimidin-4-yl]-1,3,4-oxadiazol-2-yl}pyrimidin-4-yl)-N-[2-(trifluoromethyl)phenyl]piperidine-1-carbothioamide]
19 | 63.9 | Cc1nc(N)nc(C2CCN(C(=O)Nc3c(F)cccc3F)CC2)c1-c1nnc(-c2ccnc(C(F)(F)F)n2)o1 [Compound C48, 4-(2-Amino-6-methyl-5-{5-[2-(trifluoromethyl)pyrimidin-4-yl]-1,3,4-oxadiazol-2-yl}pyrimidin-4-yl)-N-(2,6-difluorophenyl)piperidine-1-carboxamide]
20 | 23.3 | Cc1nc(N)nc(C2CCN(C(=O)Nc3c(F)cccc3C(F)(F)F)CC2)c1-c1nnc(-c2ccnc(C(F)(F)F)n2)o1 [Compound C49, 4-(2-Amino-6-methyl-5-{5-[2-(trifluoromethyl)pyrimidin-4-yl]-1,3,4-oxadiazol-2-yl}pyrimidin-4-yl)-N-[2-fluoro-6-(trifluoromethyl)phenyl]piperidine-1-carboxamide]
